Structures are written as SMILES. pIC50: −log10 of the molar value.

For 18 compounds, IC50 results are on record in patent US12018021B2 (UCB Biopharma SRL, priority 2018, dated 2024).

The target in the test is IgE-Tb / sFcεRIα-Y131A-AF488 (Homo sapiens, UniProt P01854, N146Q/N252Q). The test is described as follows: IgE-Tb / sFcεRIα-Y131A-AF488 FRET assay (protocol for examples 234 to 501). The settings on record: examples 234 to 501: compound with IgE-Tb 30 minutes before sFcεRIα-Y131A-AF488, incubated 18 hours at room temperature; read-out: Y131A FRET IC50 range. The class given is binding. On the procedure: For examples 234 to 501, the assay was conducted according to the following: Each assay reaction was conducted in a volume of 25 μl in a 384-well half-volume plate. 10 point compound serial dilutions (3-fold) were generated in DMSO at a concentration of ×50 that of the final assay concentration (FAC). Compound solutions were then prepared by diluting 10-fold in assay buffer. For the assay, 5l of diluted compound was added to 10 μl of IgE-Tb and incubated for 30 minutes before the addition of 10 μ[…]. FRET reagents FACs were 5 nM IgE-Tb, 25 nM […]. Usually the top FAC of compound in the assay was 10 μM. The final DMSO concentration was 2%. […] The maximum FRET signal (MAX) was measured in wells containing FRET reagents but no compound. The assay was incubated for 18 hours at room temperature, protected from light and evaporation, and with gentle agitation. Measurement of FRET for each well was carried out by exciting at 337 nm and measuring emission at 490/520 nm using a PHERAstar FSX plate reader (BMG Labtech). FRET ratio was calculated as follows: Emission at 520/7Emission at 490×1000. The FRET ratio was used for the data analysis. […] Z' above 0.5 was considered a good assay. Background signal (MIN) was subtracted from all wells. […] Percent inhibition was plotted against compound concentration. IC50 values for each compound were determined using four parameter logistic fit model using the XLFIT5 software package.
IgE-Tb / sFcεRIα-Y131A-AF488, sequence (P01854 whole entry N146Q/N252Q): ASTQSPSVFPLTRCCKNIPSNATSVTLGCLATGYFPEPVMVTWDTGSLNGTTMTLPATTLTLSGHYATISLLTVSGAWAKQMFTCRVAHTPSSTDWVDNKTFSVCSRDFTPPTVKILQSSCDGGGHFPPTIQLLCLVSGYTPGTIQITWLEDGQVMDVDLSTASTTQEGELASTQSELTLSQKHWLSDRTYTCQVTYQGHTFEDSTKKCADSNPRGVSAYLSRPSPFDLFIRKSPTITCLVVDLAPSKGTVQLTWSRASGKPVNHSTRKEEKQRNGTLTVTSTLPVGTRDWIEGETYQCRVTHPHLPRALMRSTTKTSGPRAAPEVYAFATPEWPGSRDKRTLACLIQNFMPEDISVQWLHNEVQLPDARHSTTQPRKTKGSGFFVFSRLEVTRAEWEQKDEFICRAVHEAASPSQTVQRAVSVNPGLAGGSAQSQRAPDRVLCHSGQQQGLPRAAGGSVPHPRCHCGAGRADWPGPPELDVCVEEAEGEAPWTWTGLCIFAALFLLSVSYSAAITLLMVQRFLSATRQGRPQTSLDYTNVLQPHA
In general, pIC50 refers to −log10 of the IC50, conventionally taken in molar units. Take `Cn1nc(OC(F)F)cc1Nc1nncn1[C@H]1CCc2sc(NC(=O)C3CC3)c(C(=O)NC[C@H]3C[C@H]3F)c2C1` (mixture of isomers) [Example 454, (5S)-2-(cyclopropanecarbonylamino)-5-[3-[[5-(difluoromethoxy)-2-methylpyrazol-3-yl]amino]-1,2,4-triazol-4-yl]-N-[[(1RS,2RS)-2-fluorocyclopropyl]methyl]-4,5,6,7-tetrahydro-1-benzothiophene-3-carboxamide]: the pIC50 is more than 6.00. For `Cn1nc(OC(F)F)cc1Nc1nncn1[C@H]1CCc2sc(NC(=O)C3CC3)c(C(=O)NCC3CC3(F)F)c2C1` (mixture of isomers) [Example 458, (5S)-2-(cyclopropanecarbonylamino)-N-[(2,2-difluorocyclopropyl)methyl]-5-[3-[[5-(difluoromethoxy)-2-methylpyrazol-3-yl]amino]-1,2,4-triazol-4-yl]-4,5,6,7-tetrahydro-1-benzothiophene-3-carboxamide], the pIC50 was more than 6.00. Consider `Cn1nc(C(F)F)cc1Nc1nncn1[C@H]1CCc2sc(NC(=O)C3CC3(F)F)c(C(=O)N[C@H]3C[C@H](F)C3)c2C1` (mixture of isomers) [Example 493, (5S)-2-[(2,2-difluorocyclopropanecarbonyl)amino]-5-[3-[[5-(difluoromethyl)-2-methyl-pyrazol-3-yl]amino]-1,2,4-triazol-4-yl]-N-(trans-3-fluorocyclobutyl)-4,5,6,7-tetrahydrobenzothiophene-3-carboxamide], for which the pIC50 was more than 6.00. As for `Cn1nc(C(F)F)cc1Nc1nncn1[C@H]1CCc2sc(NC(=O)C3CC3)c(C(=O)NC3CC34CC4)c2C1` (mixture of isomers) [Example 494, (5S)-2-cyclopropaneamido-5-(3-{[3-(difluoromethyl)-1-methyl-1H-pyrazol-5-yl]amino}-4H-1,2,4-triazol-4-yl)-N-{spiro[2.2]pentan-1-yl}-4,5,6,7-tetrahydro-1-benzothiophene-3-carboxamide], the pIC50 was more than 6.00. As to `Cn1nc(C(F)F)cc1Nc1nncn1[C@H]1CCc2sc(NC(=O)[C@@H]3C[C@H]3F)c(C(=O)NCC3CC3)c2C1` (racemic) [Example 366, (5S)—N-(cyclopropylmethyl)-5-[3-[[5-(difluoromethyl)-2-methylpyrazol-3-yl]amino]-1,2,4-triazol-4-yl]-2-[[(1RS,2SR)-2-fluorocyclopropanecarbonyl]amino]-4,5,6,7-tetrahydro-1-benzothiophene-3-carboxamide], the pIC50 is more than 6.00. Take `C[C@H]1c2c(sc(NC(=O)C3CC3)c2C(=O)NCC2CC2)CC[C@@H]1n1cnnc1Nc1cc(C(F)(F)F)nn1C` (racemic) [Example 421, (4RS,5RS)-2-(cyclopropanecarbonylamino)-N-(cyclopropylmethyl)-4-methyl-5-[3-[[2-methyl-5-(trifluoromethyl)pyrazol-3-yl]amino]-1,2,4-triazol-4-yl]-4,5,6,7-tetrahydrobenzothiophene-3-carboxamide]: the pIC50 was more than 6.00.

As to `Cn1nc(C(F)F)cc1Nc1nncn1[C@H]1CCc2sc(NC(=O)C3CC3)c(C(=O)NC[C@H]3C[C@H](F)C3)c2C1` (racemic) [Example 497, (5S)-2-(cyclopropanecarbonylamino)-5-[3-[[5-(difluoromethyl)-2-methyl-pyrazol-3-yl]amino]-1,2,4-triazol-4-yl]-N-[(3-fluorocyclobutyl)methyl]-4,5,6,7-tetrahydrobenzothiophene-3-carboxamide], the pIC50 is more than 6.00.

For the compound `C[C@H]1CCCN1C(=O)c1ncn([C@H]2CCc3sc(NC(=O)[C@H]4C[C@H]4F)c(C(=O)NCC4CC4)c3C2)c1N` (relative stereo) [Example 259, (5S)-5-[5-amino-4-[(2S)-2-methylpyrrolidine-1-carbonyl]imidazol-1-yl]-N-(cyclopropylmethyl)-2-[[(1R*,2R*)-2-fluorocyclopropanecarbonyl]amino]-4,5,6,7-tetrahydrobenzothiophene-3-carboxamide], the pIC50 is more than 6.00. To `Cn1nc(C(F)F)cc1Nc1nncn1[C@H]1CCc2sc(NC(=O)[C@@H]3CC3(F)F)c(C(=O)NC[C@@H]3C[C@@H]3F)c2C1` (relative stereo) [Example 284, (5S)-2-[[(1S*)-2,2-difluorocyclopropanecarbonyl]amino]-5-[3-[[5-(difluoromethyl)-2-methyl-pyrazol-3-yl]amino]-1,2,4-triazol-4-yl]-N-[[(1S,2S)-2-fluorocyclopropyl]methyl]-4,5,6,7-tetrahydrobenzothiophene-3-carboxamide [* or R]] belongs more than 6.00; to `O=C(NCC1CC1)c1c(NC(=O)C2CC2)sc2c1C[C@@H](n1cnnc1N[C@H]1CN(C(=O)c3ccccc3)CC1(F)F)CC2` (relative stereo) [Example 285, (5S)-5-[3-[[(3S*)-1-benzoyl-4,4-difluoro-pyrrolidin-3-yl]amino]-1,2,4-triazol-4-yl]-2-(cyclopropanecarbonylamino)-N-(cyclopropylmethyl)-4,5,6,7-tetrahydrobenzothiophene-3-carboxamide [* or R]], more than 6.00. Consider `Cn1nc(C(F)F)cc1Nc1nncn1[C@H]1CCc2sc(NC(=O)[C@@H]3CC34CC4)c(C(=O)NCC3CC3)c2C1` (relative stereo) [Example 311, (5S)—N-(cyclopropylmethyl)-5-[3-[[5-(difluoromethyl)-2-methyl-pyrazol-3-yl]amino]-1,2,4-triazol-4-yl]-2-[[(2R*)-spiro[2.2]pentane-2-carbonyl]amino]-4,5,6,7-tetrahydrobenzothiophene-3-carboxamide [* or S]], for which the pIC50 is more than 6.00. For the compound `Cn1nc(OC(F)F)cc1Nc1nncn1[C@H]1CCc2sc(NC(=O)[C@H]3CC3(F)F)c(C(=O)NCC3CC3)c2C1` (relative stereo) [Example 345, (5S)—N-(cyclopropylmethyl)-2-[[(1R*)-2,2-difluorocyclopropanecarbonyl]amino]-5-[3-[[5-(difluoromethoxy)-2-methylpyrazol-3-yl]amino]-1,2,4-triazol-4-yl]-4,5,6,7-tetrahydro-1-benzothiophene-3-carboxamide (* or S)], the pIC50 was more than 6.00.

In the case of `Cn1nc(C(F)F)cc1Nc1nncn1[C@H]1CCc2sc(NC(=O)[C@@H]3CC3(F)F)c(C(=O)NCC3CC3)c2C1` (relative stereo) [Example 365, (5S)—N-(cyclopropylmethyl)-2-[[(1R*)-2,2-difluorocyclopropanecarbonyl]amino]-5-[3-[[5-(difluoromethyl)-2-methylpyrazol-3-yl]amino]-1,2,4-triazol-4-yl]-4,5,6,7-tetrahydro-1-benzothiophene-3-carboxamide (* or S)], the pIC50 was more than 6.00. `C[C@@H]1C[C@H]1C(=O)Nc1sc2c(c1C(=O)NCC1CC1)C[C@@H](n1cnnc1Nc1cc(C(F)F)nn1C)CC2` (relative stereo) [Example 370, (5S)—N-(cyclopropylmethyl)-5-[3-[[5-(difluoromethyl)-2-methylpyrazol-3-yl]amino]-1,2,4-triazol-4-yl]-2-[[(1R*,2R*)-2-methylcyclopropanecarbonyl]amino]-4,5,6,7-tetrahydro-1-benzothiophene-3-carboxamide (* or S)]: the pIC50 is more than 6.00. On to `C[C@H]1C[C@H]1C(=O)Nc1sc2c(c1C(=O)NCC1CC1)C[C@@H](n1cnnc1Nc1cc(C(F)F)nn1C)CC2` (relative stereo) [Example 371, (5S)—N-(cyclopropylmethyl)-5-[3-[[5-(difluoromethyl)-2-methylpyrazol-3-yl]amino]-1,2,4-triazol-4-yl]-2-[[(1R*,2S*)-2-methylcyclopropanecarbonyl]amino]-4,5,6,7-tetrahydro-1-benzothiophene-3-carboxamide (*1R,2S or 1S,2R)], for which the pIC50 was more than 6.00. As for `Cn1nc(C(F)F)cc1Nc1nncn1[C@H]1CCc2sc(NC(=O)C3CC3)c(C(=O)NC[C@@H]3CC3(C)C)c2C1` (relative stereo) [Example 372, (5S)-2-(cyclopropanecarbonylamino)-5-[3-[[5-(difluoromethyl)-2-methylpyrazol-3-yl]amino]-1,2,4-triazol-4-yl]-N-[[(1R*)-2,2-dimethylcyclopropyl]methyl]-4,5,6,7-tetrahydro-1-benzothiophene-3-carboxamide (* or S)], the pIC50 is more than 6.00. To `Cn1nc(OC(F)F)cc1Nc1nncn1[C@H]1CCc2sc(NC(=O)[C@H]3C[C@@H]3F)c(C(=O)N[C@H]3CC34CC4)c2C1` (relative stereo) [Example 376, (5S)-5-[3-[[5-(difluoromethoxy)-2-methylpyrazol-3-yl]amino]-1,2,4-triazol-4-yl]-2-[[(1R,2S)-2-fluorocyclopropanecarbonyl]amino]-N-[(2R*)-spiro[2.2]pentan-2-yl]-4,5,6,7-tetrahydro-1-benzothiophene-3-carboxamide (* or S)] belongs more than 6.00. In the case of `COc1cc(Nc2nncn2[C@H]2CCc3sc(NC(=O)[C@@H]4CC45CC5)c(C(=O)NCC4CC4)c3C2)n(C)n1` (relative stereo) [Example 455, (5S)—N-(cyclopropylmethyl)-5-[3-[(5-methoxy-2-methyl-pyrazol-3-yl)amino]-1,2,4-triazo-4-yl]-2-[[(2R*)-spiro[2.2]pentane-2-carbonyl]amino]-4,5,6,7-tetrahydrobenzothiophene-3-carboxamide (* or S)], the pIC50 is more than 6.00.
